The experiment has as its target T1, frataxin precursor (aa 1-210) (Homo sapiens, UniProt Q16595).
T1 construct: gene FXN; full-length precursor, aa 1-210, recombinant, expressed and purified by GenScript
T1 sequence (Q16595 1-210): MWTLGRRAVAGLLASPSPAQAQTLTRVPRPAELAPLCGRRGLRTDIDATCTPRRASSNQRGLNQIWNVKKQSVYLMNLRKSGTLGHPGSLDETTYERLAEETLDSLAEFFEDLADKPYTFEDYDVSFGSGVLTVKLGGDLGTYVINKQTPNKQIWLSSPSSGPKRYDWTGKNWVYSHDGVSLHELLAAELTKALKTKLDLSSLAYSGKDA
In words: intrinsic Trp fluorescence quenching, hyperbolic isotherm. The note with it: 20 °C; 2 μM protein; ligand 0.5-25 μM; half-saturation binding constant; read-out: L1/2.

Drawing on PMC4358773, “Highly specific ubiquitin-competing molecules effectively promote frataxin accumulation and partially rescue the aconitase defect in Friedreich ataxia cells” (Neurobiology of Disease, 2015), this text covers Kd for two compounds.

Each structure is given as a SMILES string.

Turning to `C/C(=N\NC(=O)c1ccc(C)cc1C)c1ccc2c(c1)Nc1ccccc1S2` [UCM53], the Kd was 2900 ± 300 nM.
The same measure for `C/C(=N\NC(=O)c1ccccc1)c1ccc2c(c1)Nc1ccccc1S2` [UCM108]: 2300 ± 300 nM.
